The values that follow come from US20230381170A1, “METHOD FOR TREATING ALS/FTD THROUGH DEGRADATION OF RNA REPEAT EXPANSION” (University of Florida Research Foundation, Incorporated, priority 2020, published 2023).

Holding throughout (type): cell-based, human
One test concerns Poly(GP). Briefly: Poly(GP) by electrochemiluminescent immunoassay in patient-derived LCLs. The method, then: Measuring Poly(GP) Levels by Electrochemiluminescence. LCLs were seeded in T-25 flash at 400,000 cells/mL in 5 mL of growth medium. After overnight incubation, the cells were treated with compound or ASO for 4 days at 37° C. After the treatment period, the cells were pelleted, and total protein was extracted by incubating with CoIP2 Buffer (50 mM Tris-HCL, pH 7.4, 300 mM NaCl, 5 mM EDTA, 1% (v/v) Triton-X 100, 2% (w/v) sodium dodecyl sulfate, and 0.01% (v/v) protease and phosphatase inhibitors) on ice for 5 min and then sonication (3 s intervals at 35% power for ˜40 s). Detergent was then removed using Pierce™ Detergent Removal Spin Columns following manufacturer's protocol. Protein concentration was measured by Pierce™ BCA Protein Assay Kit.
Levels of poly(GP) were measured using Meso Scale Discovery MSD Gold 96-well Streptavidin SECTOR plates. Both capture and detection antibodies were generated using an anti-poly(GP) antibody kindly provided by the Target ALS Foundation. To serve as the capture antibody, the poly(GP) antibody was conjugated to biotin using EZ-Link™ Sulfo-NHS-LC-Biotin (Thermo Fisher) as per the manufacturer's protocol. To serve as the detection antibody, the poly(GP) antibody was sulfo-tagged using MSD GOLD SULFO-TAG NHS-Ester (Meso Scale Discovery) as per the manufacturer's protocol. The conjugated antibodies were desalted with 40K Zeba™ Spin Desalting Columns (Thermo Fisher Scientific), and their concentrations were determined by Pierce™ BCA Protein Assay Kit.
Briefly, the plates were incubated with 2 μg/ml of anti-poly(GP)-biotin antibody at 4° C. overnight. The wells were then washed three times with 1×TBST [1×Tris-buffered saline (TBS) containing 0.1% (v/v) Tween-20] and blocked with 3% BSA in 1×TBST for 1 h at room temperature (with shaking). The blocking solution was removed, and the wells were washed 3 times with 150 μL of 1×TBST. […] After washing with 150 μL of 1×TBST three times, 1×MSD GOLD Read Buffer was added to each well, and electrochemiluminescence was measured using a SECTOR Imager (MSD). […]

For test [1], the system named is C9orf72 intron 1 harboring r(G4C2)exp. The test is described as follows: C9orf72 intron 1 RT-qPCR in patient-derived iPSCs. On the procedure: iPSCs were treated for 4 days in Matrigel (356234, Corning) coated plates with mTeSR™1 feeder-free medium ([…] Technologies; Catalog #85850). Cells were treated in 6-well plates on day 1 and 3 with compounds diluted in 0.1% final DMSO.
Measuring Levels of C9orf72 and C9orf72 Variants by RT-qPCR. LCLs were seeded in 6-well plate (˜10^6 cells in 2 mL of growth medium) and incubated overnight at 37° C. Cells were then treated with various concentrations of compound for 24 h or with G4C2-ASO and Control-ASO (100 nM), delivered by transfection with Lipofectamine RNAiMax. RNA was extracted as described above and the expression of C9orf72 variants was determined by RT-qPCR. For iPSC and iPSC-derived motor neuron cell line, the cells were seeded into Matrigel-coated 6-well plate to ˜60% confluence before treated with 3 μM C9orf72-ASO or Control-ASO and various concentrations of compound for 1 to 2 weeks. For compound treatment well, medium change was performed with fresh compound every 3-4 days. RNA was extracted as described above and the expression of C9orf72 variants was determined by RT-qPCR.
On the technique in general: Real-time PCR tracks product formation cycle by cycle.

The next test relates to WT C9ORF72 protein. Briefly: C9ORF72 expression by Western blotting. Conditions: Western blot, relative to β-actin. On the procedure:
Measuring C9ORF72 Expression Level by Western Blotting. Samples analyzed by Western blot were prepared as described in “Measuring poly(GP) Levels by Electrochemiluminescence”. Approximately 20 μg of total protein was separated on a 10% SDS-polyacrylamide gel, and then transferred to a PVDF membrane. The membrane was washed with 1×TBS and then blocked in 5% milk in 1×TBST for 1 h at room temperature. After washing with 1×TBST, C9orf72 antibody (GeneTex, GTX119776; 1:3000 dilution) was added in 1×TBST containing 5% milk overnight at 4° C. […] The membrane was washed with 1×TBST, and protein expression was quantified using SuperSignal West Pico Chemiluminescent Substrate (Pierce Biotechnology) per the manufacturer's protocol.
To quantify β-actin expression, the membrane was stripped using 1× Stripping Buffer (200 mM glycine, pH 2.2 and 0.1% SDS) followed by washing in 1×TBST. […] The membrane was washed with 1×TBST and incubated with 1:10,000 anti-rabbit IgG horseradish-peroxidase secondary antibody conjugate (Cell Signaling Technology) in 1×TBST containing 5% (w/v) milk for 1 h at room temperature. β-actin protein expression was quantified using SuperSignal West Pico Chemiluminescent Substrate (Pierce Biotechnology) per the manufacturer's protocol. […].

As to `CCOC(=O)C1=C(Nc2ccccc2)S/C(=C\c2ccc(OCCOCCOCCOCCNC(=O)CCC(=O)N(CCOCCOCCOc3ccc4[nH]c5c(C)c6ccncc6c(C)c5c4c3)CCOCCOCCOc3ccc4[nH]c5c(C)c6ccncc6c(C)c5c4c3)c(O)c2)C1=O` [Compound 7], in the test on Poly(GP) (500 nM), the “reduction of Poly(GP) levels” value came to 71±11%. The “increase in potency over parent compound 3” value with Poly(GP) (Poly(GP) in LCLs) was found to be 5 fold. The “reduction of r(G4C2)exp-containing intron 1 levels” value in test [1] (50 nM) came out at 45±11%; in test [1] (500 nM) it was 64±10%. Moreover, the “WT C9ORF72 protein levels” value with WT C9ORF72 protein was “unchanged”.

With `Cc1c2ccncc2c(C)c2c1[nH]c1ccc(OCCOCCOCCNCCOCCOCCOc3ccc4[nH]c5c(C)c6ccncc6c(C)c5c4c3)cc12` [Compound 3], the “Poly(GP) expression” value in the test with Poly(GP) (5, 50 and 500 nM for 4 days) is “dose-dependent decrease”. In test [1] (patient-derived iPSCs), the “C9orf72 intron 1 levels” value is given as “no effect”. Also, in the test with WT C9ORF72 protein, the “WT C9ORF72 protein levels” value was “no effect”.
